Assay results: PubChem BioAssay AID248 (DTP/NCI, 2004)
“And” between values parts separate entries of the source, which are not always exact repeats. Identical values can stand only once. Toxic doses and inconclusive results are not listed. No stated cut-off is given here; in the data, active means T/C of 150% or more; inactive means T/C below 125%.

Test system: L1210 leukemia ip in BDF1 mice, survival T/C
Experiment: NCI In Vivo Anticancer Drug Screen. Data for tumor model L1210 Leukemia (intraperitoneal) in B6D2F1 (BDF1) mice
Settings: endpoint: mean survival time, higher = longer survival
Procedure, shortened: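 Each compound was tested against a transplantable tumor grown in mice. The endpoint was survival, with treated animals benchmarked against vehicle controls as a simple ratio.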

[1] = dose: 100.0 mg/kg/injection, schedule: Q04DX002 (ip), vehicle: saline with Tween-80
[2] = dose: 200.0 mg/kg/injection, schedule: Q04DX002 (ip), vehicle: saline with Tween-80
[3] = dose: 400.0 mg/kg/injection, schedule: Q04DX002 (ip), vehicle: saline with Tween-80
[4] = dose: 25.0 mg/kg/injection, schedule: Q01DX009 (ip), vehicle: Klucel (hydroxypropylcellulose) (HPC)
[5] = dose: 50.0 mg/kg/injection, schedule: Q01DX009 (ip), vehicle: Klucel (hydroxypropylcellulose) (HPC)
[6] = dose: 100.0 mg/kg/injection, schedule: Q01DX009 (ip), vehicle: Klucel (hydroxypropylcellulose) (HPC)
[7] = dose: 100.0 mg/kg/injection, schedule: Q04DX003 (ip), vehicle: Klucel (hydroxypropylcellulose) (HPC)
[8] = dose: 200.0 mg/kg/injection, schedule: Q04DX003 (ip), vehicle: Klucel (hydroxypropylcellulose) (HPC)
[9] = dose: 400.0 mg/kg/injection, schedule: Q04DX003 (ip), vehicle: Klucel (hydroxypropylcellulose) (HPC)
[10] = dose: 50.0 mg/kg/injection, schedule: Q01DX001 (ip), vehicle: carboxymethylcellulose (CMC)
[11] = dose: 100.0 mg/kg/injection, schedule: Q01DX001 (ip), vehicle: carboxymethylcellulose (CMC)
[12] = dose: 200.0 mg/kg/injection, schedule: Q01DX001 (ip), vehicle: carboxymethylcellulose (CMC)
[13] = dose: 400.0 mg/kg/injection, schedule: Q01DX001 (ip), vehicle: other
[14] = dose: 400.0 mg/kg/injection, schedule: Q01DX001 (ip), vehicle: saline
[15] = dose: 100.0 mg/kg/injection, schedule: Q01DX001 (ip), vehicle: other
[16] = dose: 200.0 mg/kg/injection, schedule: Q01DX001 (ip), vehicle: other
[17] = dose: 100.0 mg/kg/injection, schedule: Q01DX001 (ip), vehicle: saline
[18] = dose: 200.0 mg/kg/injection, schedule: Q01DX001 (ip), vehicle: saline

Measured: T/C

O=c1[nH]c2nc(SCc3ccccc3)n(Cc3ccccc3)c2c(=O)n1OS(=O)(=O)c1ccccc1
inactive: [1] 101 % of control and 108 % of control | dose: 100.0 mg/kg/injection, schedule: Q04DX003 (ip), vehicle: saline with Tween-80 96 % of control | [2] 94 % of control and 96 % of control | dose: 200.0 mg/kg/injection, schedule: Q04DX003 (ip), vehicle: saline with Tween-80 94 % of control | [3] 94 % of control and 96 % of control | dose: 400.0 mg/kg/injection, schedule: Q04DX003 (ip), vehicle: saline with Tween-80 91 % of control

CC(C)=CN1CCOCC1
inactive: [4] 94 % of control | [5] 92 % of control | [6] 97 % of control and 106 % of control | [7] 100 % of control | [8] 100 % of control | [9] 102 % of control

FC(F)(F)c1cc(CN(CCCl)CCCl)cc(C(F)(F)F)c1
inactive: dose: 2.4 mg/kg/injection, schedule: Q01DX009 (ip), vehicle: saline 97 % of control | dose: 3.6 mg/kg/injection, schedule: Q01DX009 (ip), vehicle: saline 98 % of control | dose: 8.2 mg/kg/injection, schedule: Q01DX009 (ip), vehicle: saline 108 % of control | dose: 42.0 mg/kg/injection, schedule: Q01DX009 (ip), vehicle: other 97 % of control | dose: 42.0 mg/kg/injection, schedule: Q01DX015 (ip), vehicle: carboxymethylcellulose (CMC) 104 % of control | [10] 111 % of control | dose: 72.0 mg/kg/injection, schedule: Q01DX009 (ip), vehicle: other 98 % of control | dose: 72.0 mg/kg/injection, schedule: Q01DX015 (ip), vehicle: carboxymethylcellulose (CMC) 116 % of control | [11] 108 % of control | dose: 120.0 mg/kg/injection, schedule: Q01DX015 (ip), vehicle: carboxymethylcellulose (CMC) 116 % of control | dose: 176.0 mg/kg/injection, schedule: Q01DX001 (ip), vehicle: other 100 % of control | dose: 178.0 mg/kg/injection, schedule: Q01DX001 (ip), vehicle: saline 103 % of control | dose: 178.0 mg/kg/injection, schedule: Q04DX003 (ip), vehicle: other 86 % of control | [12] 111 % of control | dose: 264.0 mg/kg/injection, schedule: Q01DX001 (ip), vehicle: other 107 % of control | dose: 267.0 mg/kg/injection, schedule: Q01DX001 (ip), vehicle: saline 116 % of control | [13] 105 % of control | [14] 121 % of control
active: dose: 600.0 mg/kg/injection, schedule: Q01DX001 (ip), vehicle: saline 152 % of control

O=C1C(=O)c2ccccc2C(O)=C1CCCCCCCCCC[S+](CCO)CCO
inactive: [15] 104 % of control | [16] 101 % of control

CC(/C=N\N)=N\N
inactive: dose: 15.0 mg/kg/injection, schedule: Q01DX Z (ip), vehicle: saline 91 % of control | dose: 15.0 mg/kg/injection, schedule: Q01DX Z (oral), vehicle: saline 101 % of control | dose: 30.0 mg/kg/injection, schedule: Q01DX Z (ip), vehicle: saline 108 % of control | dose: 30.0 mg/kg/injection, schedule: Q01DX Z (oral), vehicle: saline 116 % of control | dose: 60.0 mg/kg/injection, schedule: Q01DX Z (ip), vehicle: saline 91 % of control

CN(C)c1ccc(Cc2ccc(N(C)C)cc2)cc1
inactive: dose: 100.0 mg/kg/injection, schedule: Q01DX009 (ip), vehicle: saline with Tween-80 96 % of control | dose: 200.0 mg/kg/injection, schedule: Q01DX009 (ip), vehicle: saline with Tween-80 94 % of control | dose: 400.0 mg/kg/injection, schedule: Q01DX009 (ip), vehicle: saline with Tween-80 86 % of control

CC(C)(C)C(=O)C1C(=O)c2ccccc2C1=O
inactive: dose: 0.25 mg/kg/injection, schedule: Q01DX009 (ip), vehicle: Klucel (hydroxypropylcellulose) (HPC) 101 % of control | dose: 0.25 mg/kg/injection, schedule: Q04DX003 (ip), vehicle: Klucel (hydroxypropylcellulose) (HPC) 95 % of control | dose: 0.5 mg/kg/injection, schedule: Q01DX009 (ip), vehicle: Klucel (hydroxypropylcellulose) (HPC) 95 % of control | dose: 0.5 mg/kg/injection, schedule: Q04DX003 (ip), vehicle: Klucel (hydroxypropylcellulose) (HPC) 101 % of control | dose: 1.0 mg/kg/injection, schedule: Q01DX009 (ip), vehicle: Klucel (hydroxypropylcellulose) (HPC) 104 % of control | dose: 1.0 mg/kg/injection, schedule: Q04DX003 (ip), vehicle: Klucel (hydroxypropylcellulose) (HPC) 100 % of control

CCOC(=O)C(Cc1ccc(OCc2ccccc2)c(OCc2ccccc2)c1)(NC=O)C(=O)OCC
inactive: [15] 94 % of control | [16] 92 % of control | [13] 87 % of control

O=S(=O)(Nc1ccccc1F)c1cc(Cl)c(Cl)cc1Cl
inactive: dose: 100.0 mg/kg/injection, schedule: Q01DX009 (ip), vehicle: saline 96 % of control | dose: 200.0 mg/kg/injection, schedule: Q01DX009 (ip), vehicle: saline 96 % of control | dose: 400.0 mg/kg/injection, schedule: Q01DX009 (ip), vehicle: saline 94 % of control

CC(=O)/C(=C\c1ccc(N(C)C)cc1)C(C)=[N+](C)C(=O)c1c(/[N+](C)=C(C)\C(=C\c2ccc(N(C)C)cc2)C(C)=O)ncn1C
inactive: dose: 50.0 mg/kg/injection, schedule: Q01DX001 (ip), vehicle: saline 103 % of control | [17] 103 % of control and 90 % of control | [18] 97 % of control and 118 % of control

CCOC(=O)C(C#N)C1CCCCC1 (centres undefined)
inactive: [4] 109 % of control | [5] 102 % of control | dose: 100.0 mg/kg/injection, schedule: Q01DX001 (ip), vehicle: saline with Tween-80 98 % of control | [6] 102 % of control | [7] 102 % of control | dose: 200.0 mg/kg/injection, schedule: Q01DX001 (ip), vehicle: saline with Tween-80 95 % of control | [8] 107 % of control | [9] 100 % of control

O=C(CCl)NP(=O)(O)O
inactive: dose: 25.0 mg/kg/injection, schedule: Q04DX002 (ip), vehicle: saline 97 % of control | dose: 50.0 mg/kg/injection, schedule: Q04DX002 (ip), vehicle: saline 102 % of control | dose: 100.0 mg/kg/injection, schedule: Q04DX002 (ip), vehicle: saline 102 % of control

NC(=S)c1cn(C2OC(CO)C(O)C2O)c2ncncc12 (centres undefined)
active: dose: 100.0 mg/kg/injection, schedule: Q01DX005 (ip), vehicle: saline 164 % of control | dose: 200.0 mg/kg/injection, schedule: Q01DX005 (ip), vehicle: saline 167 % of control

CCN1CCC(CCOC)(CN2c3ccccc3Sc3ccccc32)C1 (centres undefined)
inactive: dose: 12.5 mg/kg/injection, schedule: Q04DX003 (ip), vehicle: saline 95 % of control | dose: 25.0 mg/kg/injection, schedule: Q04DX003 (ip), vehicle: saline 97 % of control | dose: 50.0 mg/kg/injection, schedule: Q04DX003 (ip), vehicle: saline 104 % of control

CCCC(CCCC(=O)O)C(=O)O (centres undefined)
inactive: [10] 86 % of control | [11] 90 % of control | [12] 92 % of control | dose: 400.0 mg/kg/injection, schedule: Q01DX001 (ip), vehicle: carboxymethylcellulose (CMC) 90 % of control

CC1CN=C(c2ccc(NC(=O)C3CCC(C(=O)Nc4ccc(C5=NCC(C)N5)cc4)CC3)cc2)N1 (centres undefined)
active: dose: 31.0 mg/kg/injection, schedule: Q01DX015 (ip), vehicle: methylcellulose (MC) 159 % of control
inactive: dose: 62.0 mg/kg/injection, schedule: Q01DX015 (ip), vehicle: methylcellulose (MC) 113 % of control

O=C1Nc2ccccc2C1O (centres undefined)
inactive: [17] 101 % of control | [18] 101 % of control | [14] 108 % of control

CN1CCN(P(c2ccccc2)N2CCN(C)CC2)CC1
inactive: [1] 107 % of control | [2] 103 % of control | [3] 95 % of control
